Entries after “also recorded” stand apart in the source; their conditions may differ. Marks after values point to notes of the source that are not given here. Each block holds one molecule with its values, some of them ahead of it.
Legend:
[1] = Aqueous solubility test (vortexing in water); format: physicochemical; conditions: for solubility in water (in words): water at 25 °C
Protocol: Aqueous solubility (S) test of the 17 ingredients was performed by vortexing 10 mg of each ingredient in […] water in a test tube at ambient temperature and 1 atm. After vortexing for 5 min, if the solution is clear, the tested object will be considered as soluble in water. In silico assessment of the physicochemical properties governing permeation and intestinal absorption was carried out for the 17 ingredients studied. Theory aqueous solubility (S) was calculated with ALOGPS 2.1 online software via the Virtual Computational Chemistry Laboratory service (Chemoinformatics Group, Neuherberg, Germany) (VCCLAB^1). The octanol–water partition coefficient (cLogP), the total hydrogen bond count (donors and acceptors), and topological polar surface area (TPSA) were determined using the Molinspiration Property Calculator (Molinspiration Cheminformatics, Bratislava, Slovak Republic^2). Lipinski’s rule of 5 was used to predict the permeability of the compound ([Lipinski et al., 2001]).

Caco-2 cell monolayers = conditions: ref Lu et al., 2008, Liu et al., 2009, Hu et al., 2014, Bowles et al., 2017, cited from earlier work; for Papp(apical→basolateral) / Papp(basolateral→apical): Caco-2 cell monolayers, from literature; for apparent permeability in Caco-2 cell monolayers: previous results
[2] = Stability tests in rat plasma (QC samples, HPLC-MS); conditions: n=5
Text: Accuracy and precision were expressed by relative error (RE) and coefficient of variance (RSD), respectively.

[3] = Multiple component PK study in rat plasma after p.o. GDDP (HPLC-MS); conditions: for determination in rat plasma at the planned successive PK time points / detection in rat plasma: GDDP 0.8 g/kg p.o.; for determination in rat plasma at the planned successive PK time points: 5, 10, 15, 30, 45, 60, and 120 min, LOQ 1.0–1.4 ng/mL; for detection in rat plasma: at 5, 10, 15, 30, 45, or 60 min, LOD 0.5–0.7 ng/mL
[4] = system: isoprenaline-induced MI in mice; assay: In vivo anti-MI study: isoprenaline-induced myocardial injury (ECG, H&E histology); conditions: for ECG (lead II) findings on the fifth day of the trial: 40 mg/kg p.o., isoprenaline 5 mg/kg on days 4 and 5
[5] = 24h in auto-sampler vials, spiked 2 ng/mL
[6] = 24h in auto-sampler vials, spiked 400 ng/mL
[7] = 24h in auto-sampler vials, spiked 1600 ng/mL
[8] = Placing plasma for 6h at 4°C, spiked 2 ng/mL
[9] = Placing plasma for 6h at 4°C, spiked 400 ng/mL
[10] = Placing plasma for 6h at 4°C, spiked 1600 ng/mL
[11] = three freeze-thaw cycles, rat plasma, spiked 2 ng/mL
[12] = three freeze-thaw cycles, rat plasma, spiked 400 ng/mL
[13] = three freeze-thaw cycles, rat plasma, spiked 1600 ng/mL
[14] = Sprague-Dawley, rat, plasma, po, 0.4 g/kg
[15] = Sprague-Dawley, rat, plasma, po, 0.4 g/kg, Cmax, rat plasma, GDDP 0.4 g/kg p.o. (Low dose group), n=3
[16] = Sprague-Dawley, rat, plasma, po, 0.4 g/kg, t1/2 β, rat plasma, GDDP 0.4 g/kg p.o. (Low dose group), n=3
[17] = Sprague-Dawley, rat, plasma, po, 0.8 g/kg
[18] = Sprague-Dawley, rat, plasma, po, 0.8 g/kg, Cmax (high / low plasma drug concentrations), rats, GDDP 0.4 and 0.8 g/kg p.o., classification
[19] = Sprague-Dawley, rat, plasma, po, 0.8 g/kg, Cmax, rat plasma, GDDP 0.8 g/kg p.o. (High dose group), n=3
[20] = Sprague-Dawley, rat, plasma, po, 0.8 g/kg, t1/2 β (fast / slow elimination type), rats, GDDP 0.4 and 0.8 g/kg p.o., classification
[21] = Sprague-Dawley, rat, plasma, po, 0.8 g/kg, t1/2 β, rat plasma, GDDP 0.8 g/kg p.o. (High dose group), n=3
[22] = rat plasma, GDDP 0.4 g/kg p.o. (Low dose group), n=3
[23] = rat plasma, GDDP 0.8 g/kg p.o. (High dose group), n=3
[24] = 40 mg/kg p.o. for 7 days, isoprenaline-induced MI, 40 mg/kg
[25] = 40 mg/kg p.o. for 7 days, isoprenaline-induced MI

Structure (SMILES): CC(C)=CCC[C@](C)(O[C@@H]1O[C@H](CO)[C@@H](O)[C@H](O)[C@H]1O)[C@H]1CC[C@]2(C)[C@@H]1[C@H](O)C[C@@H]1[C@@]3(C)CC[C@H](O[C@@H]4O[C@H](CO)[C@@H](O)[C@H](O)[C@H]4O[C@@H]4O[C@H](CO)[C@@H](O)[C@H](O)[C@H]4O)C(C)(C)[C@@H]3CC[C@]12C [Rd, ginsenoside Rd]
solubility at 5 min ([1]; thermodynamic from solid, determined, water, 25 °C, 1 atm): > 10000 µg/mL
Papp(apical→basolateral) (Caco-2 cell monolayers): > 0.1^c ×10^-6 cm/s
Papp(basolateral→apical) (Caco-2 cell monolayers): > 0.1^c ×10^-6 cm/s
apparent permeability in Caco-2 cell monolayers (Caco-2 cell monolayers): > 10^-7 cm/s
Stability: Measured [2, 5]: 1.93 ± 0.23 ng/mL
Stability: RE [2, 5]: -3.59%
Stability: Measured [2, 6]: 406.43 ± 27.13 ng/mL
Stability: RE [2, 6]: 1.61%
Stability: Measured [2, 7]: 1489.53 ± 52.70 ng/mL
Stability: RE [2, 7]: -6.90%
Stability: Measured [2, 8]: 1.65 ± 0.33 ng/mL
Stability: RE [2, 8]: -17.56%
Stability: Measured [2, 9]: 449.87 ± 18.67 ng/mL
Stability: RE [2, 9]: 12.47%
Stability: Measured [2, 10]: 1891.74 ± 134.38 ng/mL
Stability: RE [2, 10]: 18.23%
Stability: Measured [2, 11]: 1.81 ± 0.18 ng/mL
Stability: RE [2, 11]: -9.59%
Stability: Measured [2, 12]: 438.01 ± 11.23 ng/mL
Stability: RE [2, 12]: 9.50%
Stability: Measured [2, 13]: 1768.72 ± 60.05 ng/mL
Stability: RE [2, 13]: 10.54%
determination in rat plasma at the planned successive PK time points [3]: could be determined
detection in rat plasma [3]: could be detected
AUC(0-inf) [3, 14]: 340 ± 348 ng·h/mL
AUC(0-t) [3, 14]: 254 ± 236 ng·h/mL
MRT inf [3, 14]: 12.8 ± 8.78 h
MRT last [3, 14]: 8.88 ± 3.79 h
Tmax [3, 14]: 9 ± 4.24 h
Cmax [3, 15]: 24.5 ± 4.04 ng/mL
half-life [3, 16]: 5.63 ± 5.88 h
AUC(0-inf) [3, 17]: 378 ± 56.4 ng·h/mL
AUC(0-t) [3, 17]: 281 ± 28.1 ng·h/mL
MRT inf [3, 17]: 17.3 ± 2.01 h
MRT last [3, 17]: 10.7 ± 2.31 h
Tmax [3, 17]: 2.25 ± 3.25 h
Cmax [3, 18]: > 20 ng/mL
Cmax [3, 19]: 37.2 ± 26.3 ng/mL
half-life [3, 20]: > 2.6 h
half-life [3, 21]: 8.53 ± 4.42 h
Cltot [3, 22]: 624.2 ± 638.8 mL/min/kg
Cltot [3, 23]: 350.3 ± 310.5 mL/min/kg
Histopathology of heart tissue (H&E) [4, 24]: remarkably severe histological damage with extensive myocardial lysis and architecture wrecking; also recorded: extremely severe histological damage with extensive myocardial lysis and architecture wrecking
ECG (lead II) findings on the fifth day of the trial [4]: ST segment elevated

solubility in water (in words) [1]: insoluble
Stability: Measured [2, 5]: 2.25 ± 0.34 ng/mL
Stability: RE [2, 5]: 12.73%
Stability: Measured [2, 6]: 464.77 ± 53.87 ng/mL
Stability: RE [2, 6]: 16.19%
Stability: Measured [2, 7]: 1714.76 ± 174.65 ng/mL
Stability: RE [2, 7]: 7.17%
Stability: Measured [2, 8]: 2.14 ± 0.11 ng/mL
Stability: RE [2, 8]: 6.84%
Stability: Measured [2, 9]: 462.76 ± 13.70 ng/mL
Stability: RE [2, 9]: 15.69%
Stability: Measured [2, 10]: 1933.47 ± 224.22 ng/mL
Stability: RE [2, 10]: 20.84%
Stability: Measured [2, 11]: 2.10 ± 0.23 ng/mL
Stability: RE [2, 11]: 4.94%
Stability: Measured [2, 12]: 468.67 ± 61.03 ng/mL
Stability: RE [2, 12]: 19.13%
Stability: Measured [2, 13]: 1830.46 ± 289.25 ng/mL
Stability: RE [2, 13]: 14.40%
determination in rat plasma at the planned successive PK time points [3]: could be determined
detection in rat plasma [3]: could be detected
AUC(0-inf) [3, 14]: 71.7 ± 47.4 ng·h/mL
AUC(0-t) [3, 14]: 23.5 ± 6.4 ng·h/mL
MRT last [3, 14]: 5.4 ± 0.41 h
Cmax [3, 15]: 4.04 ± 0.72 ng/mL
AUC(0-inf) [3, 17]: 90.7 ± 52.9 ng·h/mL
AUC(0-t) [3, 17]: 31.1 ± 1.74 ng·h/mL
MRT last [3, 17]: 5.23 ± 0.04 h
Tmax [3, 17]: 0.33 ± 0.14 h
Cmax [3, 18]: < 10 ng/mL
Cmax [3, 19]: 9.21 ± 0.78 ng/mL
half-life [3, 20]: > 2.6 h
half-life [3, 21]: 18.3 ± 13 h
Cltot [3, 22]: 382.2 ± 252.5 mL/min/kg
MRT0-∞ [3, 22]: 27.09 ± 16.67 h
Tmax [3, 22]: 0.25 ± 0.00 h
t1/2 β [3, 22]: 18.14 ± 12.52 h
Cltot [3, 23]: 585.2 ± 304.2 mL/min/kg
MRT0-∞ [3, 23]: 26.52 ± 19.83 h
Structure (SMILES): Cc1coc2c1C(=O)C(=O)c1c-2ccc2c1CCCC2(C)C [TS IIA, tanshinone (TS) IIA]
Papp(apical→basolateral) (Caco-2 cell monolayers): 0.98^d ×10^-6 cm/s
Papp(basolateral→apical) (Caco-2 cell monolayers): 11.81^d ×10^-6 cm/s
apparent permeability in Caco-2 cell monolayers (Caco-2 cell monolayers): ≥ 10^-6 cm/s
ST segment elevations on the seventh day of the trial ([4]; 40 mg/kg p.o. for 7 days, compared with model group, P < 0.05): significantly decreased
Histopathology of heart tissue (H&E) [4, 25]: edema, inflammatory infiltration, and loss of striations in heart tissue
anti-MI effect (overall conclusion) [4, 25]: mild therapeutic effect
ECG (lead II) findings on the fifth day of the trial [4]: ST segment elevated

Structure (SMILES): Cc1cccc2c3c(ccc12)C1=C(C(=O)C3=O)[C@@H](C)CO1 [DHTS I, dihydrotanshinone I]
solubility in water (in words) [1]: insoluble
Papp(apical→basolateral) (Caco-2 cell monolayers): 1.49^d ×10^-6 cm/s
Papp(basolateral→apical) (Caco-2 cell monolayers): 8.28^d ×10^-6 cm/s
apparent permeability in Caco-2 cell monolayers (Caco-2 cell monolayers): ≥ 10^-6 cm/s
Stability: Measured [2, 5]: 2.21 ± 0.23 ng/mL
Stability: RE [2, 5]: 10.31%
Stability: Measured [2, 6]: 464.67 ± 43.51 ng/mL
Stability: RE [2, 6]: 16.17%
Stability: Measured [2, 7]: 1644.43 ± 109.72 ng/mL
Stability: RE [2, 7]: 2.78%
Stability: Measured [2, 8]: 2.23 ± 0.06 ng/mL
Stability: RE [2, 8]: 11.41%
Stability: Measured [2, 9]: 456.85 ± 38.51 ng/mL
Stability: RE [2, 9]: 14.21%
Stability: Measured [2, 10]: 1735.14 ± 230.11 ng/mL
Stability: RE [2, 10]: 8.45%
Stability: Measured [2, 11]: 2.015 ± 0.18 ng/mL
Stability: RE [2, 11]: 2.73%
Stability: Measured [2, 12]: 437.97 ± 37.90 ng/mL
Stability: RE [2, 12]: 9.49%
Stability: RE [2, 13]: 0.88%
determination in rat plasma at the planned successive PK time points [3]: could be determined
detection in rat plasma [3]: could be detected
AUC(0-inf) [3, 14]: 14.2 ± 17.2 ng·h/mL
AUC(0-t) [3, 14]: 12.1 ± 14.4 ng·h/mL
MRT inf [3, 14]: 6.93 ± 7.38 h
MRT last [3, 14]: 5.17 ± 5.21 h
Tmax [3, 14]: 1.38 ± 0.88 h
Cmax [3, 15]: 1.9 ± 1.57 ng/mL
half-life [3, 16]: 2.68 ± 2.38 h
AUC(0-inf) [3, 17]: 16.1 ± 2.84 ng·h/mL
AUC(0-t) [3, 17]: 14.7 ± 2.51 ng·h/mL
MRT inf [3, 17]: 7.26 ± 3.47 h
MRT last [3, 17]: 5.05 ± 2.03 h
Tmax [3, 17]: 0.83 ± 0.14 h
Cmax [3, 18]: < 10 ng/mL
Cmax [3, 19]: 3.1 ± 0.49 ng/mL
half-life [3, 20]: > 2.6 h
half-life [3, 21]: 5.57 ± 2.98 h
Cltot [3, 22]: 101 ± 122 mL/min/kg
Cltot [3, 23]: 47.7 ± 7.67 mL/min/kg
Histopathology of heart tissue (H&E) [4, 24]: remarkably severe histological damage with extensive myocardial lysis and architecture wrecking; also recorded: extremely severe histological damage with extensive myocardial lysis and architecture wrecking
ECG (lead II) findings on the fifth day of the trial [4]: T waves reversed or decreased

Reference: PMC6308302, “Identification of Pharmacokinetic Markers for Guanxin Danshen Drop Pills in Rats by Combination of Pharmacokinetics, Systems Pharmacology, and Pharmacodynamic Assays” (Frontiers in Pharmacology, 2018)
